Reference: ChEMBL document CHEMBL1201862, “PubChem BioAssay data set” (2004)
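Results reflect a 48-hour exposure of cells in 96-well plates to compound at five concentrations. The concentration for 50% growth inhibition is given as GI50.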 Calls of active or inactive are those of the source. Cut-off read from the data, not from the text of the source: active = GI50 up to about 1.1 µM and inactive = higher.

What was measured:
Test in all cases: NCI anticancer screen, dose series, 48 h
786-0 = system: 786-0
EKVX = system: EKVX
HCC 2998 = system: HCC 2998
HL-60 = system: HL-60
HT-29 = system: HT-29
M14 = system: M14
MCF7 = system: MCF7
MDA-MB-435 = system: MDA-MB-435
MOLT-4 = system: MOLT-4
NCI-H226 = system: NCI-H226
NCI-H23 = system: NCI-H23
NCI-H522 = system: NCI-H522
OVCAR-4 = system: OVCAR-4
OVCAR-5 = system: OVCAR-5
RXF 393 = system: RXF 393
SF-295 = system: SF-295
SNB-19 = system: SNB-19
U-251 = system: U-251
UO-31 = system: UO-31
MDA-N = system: MDA-N

Measured: GI50

COc1cc(O)cc(O)c1C(=O)CC(Cl)(Cl)Cl
inactive: 786-0 > 100 µM | EKVX > 100 µM | HCC 2998 > 100 µM | HL-60 > 100 µM | HT-29 > 100 µM | M14 > 100 µM | MCF7 > 100 µM | MDA-MB-435 > 100 µM | MOLT-4 > 100 µM | NCI-H226 > 100 µM | NCI-H23 > 100 µM | NCI-H522 > 100 µM | OVCAR-4 > 100 µM | OVCAR-5 > 100 µM | RXF 393 > 100 µM | SF-295 > 100 µM | SNB-19 > 100 µM | U-251 > 100 µM | UO-31 > 100 µM

CC12CCCC3(CC(=O)C(C)(C)C3C(=O)C1)C2 (stereo unspecified)
inactive: 786-0 > 100 µM | EKVX > 100 µM | HL-60 > 100 µM | HT-29 > 100 µM | M14 > 100 µM | MCF7 > 100 µM | MDA-MB-435 > 100 µM | MDA-N > 100 µM | MOLT-4 > 100 µM | NCI-H226 > 100 µM | NCI-H23 > 100 µM | NCI-H522 > 100 µM | OVCAR-4 > 100 µM | OVCAR-5 > 100 µM | SF-295 > 100 µM | SNB-19 > 100 µM | U-251 > 100 µM | UO-31 > 100 µM

Cc1cccc(C)c1NC(=O)C(Cc1c[nH]c2ccccc12)NC(=O)OCc1ccccc1 (stereo unspecified)
inactive: 786-0 20.1 µM | EKVX 15.2 µM | HL-60 12.4 µM | HT-29 18.7 µM | M14 11.5 µM | MCF7 23.2 µM | MDA-MB-435 14.7 µM | MDA-N 15.7 µM | MOLT-4 15.4 µM | NCI-H23 24 µM | NCI-H522 20.1 µM | OVCAR-4 8.04 µM | OVCAR-5 18.8 µM | RXF 393 13.9 µM | SF-295 17 µM | SNB-19 14.9 µM | U-251 19.5 µM | UO-31 10.3 µM

CC(c1ccccc1)N1CCN(C(C)c2ccccc2)CC1 (stereo unspecified)
inactive: 786-0 > 100 µM | EKVX > 100 µM | HCC 2998 20.1 µM | HL-60 > 100 µM | HT-29 44.8 µM | M14 22.8 µM | MDA-MB-435 80.4 µM | MDA-N 45.6 µM | MOLT-4 39.5 µM | NCI-H226 > 100 µM | NCI-H23 > 100 µM | NCI-H522 > 100 µM | OVCAR-4 > 100 µM | OVCAR-5 > 100 µM | RXF 393 79.6 µM | SF-295 > 100 µM | SNB-19 > 100 µM | U-251 > 100 µM | UO-31 > 100 µM

COCCn1cnc2c(Cl)nc(Nc3ccccc3)nc21
inactive: 786-0 69.2 µM | EKVX 21.3 µM | HCC 2998 17.3 µM | HL-60 22.9 µM | HT-29 64 µM | M14 26.3 µM | MCF7 36.4 µM | MDA-MB-435 18.1 µM | MOLT-4 23.3 µM | NCI-H226 > 100 µM | NCI-H23 33.3 µM | OVCAR-4 22 µM | OVCAR-5 > 100 µM | RXF 393 20.9 µM | SF-295 > 100 µM | SNB-19 90.4 µM | U-251 32.7 µM

CC(C)(C)c1ccc(/C=N/NC(=O)CSCC(=O)N/N=C/c2ccc(C(C)(C)C)cc2)cc1
inactive: 786-0 1.95 µM | EKVX 2.65 µM | HCC 2998 2.73 µM | HL-60 1.72 µM | HT-29 1.83 µM | M14 1.57 µM | MCF7 2.28 µM | MOLT-4 2.12 µM | NCI-H226 2.09 µM | NCI-H23 2.5 µM | NCI-H522 4.47 µM | OVCAR-4 3.88 µM | OVCAR-5 3.03 µM | RXF 393 2.15 µM | SNB-19 2.93 µM | U-251 1.61 µM | UO-31 3.71 µM

O=C(O)CCC(NC(=O)c1ccc(Oc2nc3ccccc3nc2C(=O)O)cc1)C(=O)O (stereo unspecified)
inactive: 786-0 > 100 µM | EKVX > 100 µM | HCC 2998 > 100 µM | HL-60 > 100 µM | HT-29 > 100 µM | M14 > 100 µM | MDA-MB-435 > 100 µM | MOLT-4 > 100 µM | NCI-H226 > 100 µM | NCI-H23 > 100 µM | NCI-H522 > 100 µM | OVCAR-4 > 100 µM | OVCAR-5 > 100 µM | RXF 393 > 100 µM | SF-295 > 100 µM | SNB-19 > 100 µM | U-251 > 100 µM | UO-31 > 100 µM

O=S(=O)(C1=CC(S(=O)(=O)c2ccccc2)CN(Cc2ccccc2)C1c1cccc2ccccc12)c1ccccc1 (stereo unspecified)
inactive: 786-0 > 69 µM | EKVX > 69 µM | HCC 2998 > 69 µM | HL-60 > 69 µM | HT-29 > 69 µM | M14 > 69 µM | MOLT-4 > 69 µM | NCI-H226 14.6 µM | NCI-H23 > 69 µM | NCI-H522 > 69 µM | OVCAR-4 > 69 µM | OVCAR-5 > 69 µM | RXF 393 25.4 µM | SF-295 > 69 µM | SNB-19 > 69 µM | U-251 > 69 µM | UO-31 > 69 µM

N#Cc1c(-c2ccc([N+](=O)[O-])cc2)c(C#N)c(=O)n(NS(=O)(=O)c2ccccc2)c1-c1ccccc1
inactive: 786-0 > 100 µM | EKVX > 100 µM | HCC 2998 > 100 µM | HL-60 > 100 µM | HT-29 > 100 µM | M14 > 100 µM | MCF7 > 100 µM | MDA-MB-435 > 100 µM | MOLT-4 > 100 µM | NCI-H226 > 100 µM | NCI-H522 > 100 µM | OVCAR-4 > 100 µM | OVCAR-5 > 100 µM | RXF 393 > 100 µM | SF-295 > 100 µM | SNB-19 > 100 µM | U-251 > 100 µM

CNc1cc(N)ccc1C(=O)N1CCC[C@H]1CO
inactive: 786-0 > 100 µM | EKVX > 100 µM | HT-29 > 100 µM | M14 > 100 µM | MCF7 > 100 µM | MDA-MB-435 > 100 µM | MDA-N > 100 µM | MOLT-4 > 100 µM | NCI-H226 27.3 µM | NCI-H522 > 100 µM | OVCAR-5 > 100 µM | SF-295 > 100 µM | SNB-19 > 100 µM | U-251 > 100 µM | UO-31 > 100 µM

C=C1CC[C@@H]2C13[C@@H]1[C@H](CC(=O)[C@@]23C)C1(C)C (stereo partly specified)
inactive: 786-0 55.1 µM | HL-60 > 100 µM | HT-29 > 100 µM | M14 > 100 µM | MCF7 > 100 µM | MDA-MB-435 > 100 µM | MOLT-4 > 100 µM | NCI-H226 > 100 µM | NCI-H23 > 100 µM | NCI-H522 > 100 µM | OVCAR-4 15.5 µM | OVCAR-5 > 100 µM | RXF 393 43.6 µM | SF-295 82 µM | U-251 > 100 µM | UO-31 16.4 µM
